This note sets out measurements from the NIST ThermoML archive (doi:10.1021/acs.jced.7b00945).

Data set [1] in a line: refractive index (Na D-line) (dimensionless); wn = mass fraction of the nth substance listed. Conditions: 303 K, 100 kPa, Liquid, Standard Abbe refractometry.
Data set [2] in a line: refractive index (Na D-line) (dimensionless). Conditions: 303 K; 100 kPa; Liquid; Standard Abbe refractometry.

As a reminder, the refractive index is the speed of light in vacuum divided by its phase velocity in the sample.

± gives the expanded uncertainty stated by the source.

`OCCOCCO` [diethylene glycol] + O: the refractive index was found to be 1.43408 ± 0.00043 in data set [1] (w2 = 0.11); 1.42406 ± 0.00042 in data set [1] (w2 = 0.2); 1.41341 ± 0.00041 in data set [1] (w2 = 0.3); 1.40107 ± 0.00042 in data set [1] (w2 = 0.41); 1.38922 ± 0.00041 in data set [1] (w2 = 0.5); 1.37817 ± 0.0004 in data set [1] (w2 = 0.6). For the same compound, the refractive index in data set [1] (w2 = 0.7) came out at 1.36617 ± 0.0004; in data set [1] (w2 = 0.8) it was 1.35413 ± 0.0004; in data set [1] (w2 = 0.9), 1.34259 ± 0.00039.

As for `OCCO` [1,2-ethanediol] + O, the refractive index in data set [1] (w2 = 0.1) was determined as 1.4196 ± 0.00038; in data set [1] (w2 = 0.2) it was 1.41005 ± 0.00038; in data set [1] (w2 = 0.3) it was 1.4008 ± 0.00038; in data set [1] (w2 = 0.41), 1.38994 ± 0.00038; in data set [1] (w2 = 0.5), 1.38106 ± 0.00038; in data set [1] (w2 = 0.6), 1.37126 ± 0.00038. The refractive index in data set [1] (w2 = 0.7) was 1.36074 ± 0.00038; in data set [1] (w2 = 0.8), 1.35122 ± 0.00038; in data set [1] (w2 = 0.89), 1.34168 ± 0.00037.

For the compound `O` [water], the refractive index in data set [2] worked out at 1.33179 ± 0.00032.

For `O` [water] + OCCOCCO, in data set [1] (w1 = 1), the refractive index is listed as 1.33179 ± 0.00032.

As for `O` [water] + OCCOCCOCCOCCO, the refractive index in data set [1] (w1 = 1) was found to be 1.33179 ± 0.00032.

Regarding `O` [water] + OCCO, the refractive index in data set [1] (w1 = 1) is given as 1.33179 ± 0.00032.

For the compound `O` [water] + OCCOCCOCCO, the refractive index in data set [1] (w1 = 1) stood at 1.33179 ± 0.00032.

Take `OCCOCCOCCO` [triethylene glycol] + O: the refractive index in data set [1] (w2 = 0.1) is listed as 1.44204 ± 0.00042; in data set [1] (w2 = 0.21), 1.43047 ± 0.00042; in data set [1] (w2 = 0.3) it was 1.41992 ± 0.00042; in data set [1] (w2 = 0.41), 1.40643 ± 0.00043; in data set [1] (w2 = 0.5), 1.39413 ± 0.00042; in data set [1] (w2 = 0.6), 1.38175 ± 0.00042. Besides, the refractive index came to 1.36838 ± 0.00041 in data set [1] (w2 = 0.7), 1.35616 ± 0.0004 in data set [1] (w2 = 0.8) and 1.34378 ± 0.0004 in data set [1] (w2 = 0.9).
